Here are results for three compounds from patent US20240285784A1, “PEPTIDIC CONJUGATES OF SN38 USEFUL IN THE TREATMENT OF CANCER” (FUNDACIÓ INSTITUT DE RECERCA BIOMÈDICA (IRB BARCELONA), priority 2020, published 2024).

For orientation: IC50 means the point on the concentration scale where inhibition reaches its midpoint.

Like-named read-outs stand apart in the source and are kept apart here. *1 amine or outer side, *2 acyl side, *3 side chain or, on linkers, in order; H or OH if unused. Where a SMILES comes first, the peptide text is derived from it. Bridges are numbered along the chain shown (N, C = ends). [ ]: non-standard residue; d: D form. The star is where a group is joined. X1 = CCc1c2c(nc3ccc(O)cc13)-c1cc3c(c(=O)n1C2)COC(=O)[C@@]3(CC)OC(=O)CCCCn1cc(CCCC(=O)NCCCOCCOCCOCCCN*)nn1; Suc = O=C(CCC(=O)[*:2])[*:1]; Dap = NC[C@H](N)C(=O)O

What all share (format): cell-based
In experiment [1] the test system is neuroblastoma cell line SK-N-JD. Nature of the experiment: MTS cell viability assay, neuroblastoma cell line SK-N-JD. The conditions noted are these: 72 h incubation, Example 9, Table 3, read-out: IC50 values against cancer cell lines. The source says: (§1) Cancer cell lines were obtained from the repository maintained at Hospital Sant Joan de Deu (Barcelona, Spain). Cancer cell lines used in these experiment included cancer types of adult glioma (U373 and U87 cell lines), pediatric gliomas including diffuse intrinsic pontine glioma (HSJD-DIPG-007, HSJD-DIPG-011), and pediatric high-grade glioma (HSJD-GBM-001), retinoblastoma (HSJD-RBT-5, HSJD-RBT-7 and HSJD-RBT-14), Ewing sarcoma (A673), rhabdomyosarcoma (Rd and RH4) and neuroblastoma (LAN-1 and SK-N-JD cell lines and HSJD-NB-004, HSJD-NB-005 and HSJD-NB-016 patient-derived cell models). […] To add the drugs to the cells in culture, SN38-linker A-MiniAp4 (Ia) and irinotecan were prepared in culture medium from stock solutions at concentration 1 mg/mL in water. SN38 was prepared in culture medium from a stock solution at concentration 1 mg/mL in DMSO. […] Activity curves were built for adult glioma cell lines U87 (FIG. 1) and U373 (FIG. 2), pediatric gliomas including DIPG models HSJD-DIPG-007 (FIG. 3) and HSJD-DIPG-011 (FIG. 4), and pediatric high-grade glioma model HSJD-GBM-001 (FIG. 5), retinoblastoma models HSJD-RBT-5 (FIG. 6), HSJD-RBT-7 (FIG. 7) and HSJD-RBT-14 (FIG. 8), Ewing sarcoma cell line A673 (FIG. 9), rhabdomyosarcoma cell lines Rd (FIG. 10) and RH4 (FIG. 11), neuroblastoma cell lines LAN-1 (FIG. 12) and SK-N-JD (FIG. 13) and neuroblastoma patient-derived cell models HSJD-NB-004 (FIG. 14), HSJD-NB-005 (FIG. 15) and HSJD-NB-016 (FIG. 16). The established IC50 values are in Table 3.
In general terms: Tetrazolium dyes change colour on reduction, which living cells bring about.

Experiment [2] concerns Ewing sarcoma cell line A673. Nature of the experiment: MTS cell viability assay, Ewing sarcoma cell line A673. Conditions: 72 h incubation, Example 9, Table 3, read-out: IC50 values against cancer cell lines.
From the text: as §1

For experiment [3], the system named is adult glioma cell line U373. Nature of the experiment: MTS cell viability assay, adult glioma cell line U373. Conditions: 72 h incubation, Example 9, Table 3, read-out: IC50 values against cancer cell lines.
From the text: as §1

The subject of experiment [4] is diffuse intrinsic pontine glioma HSJD-DIPG-011. Briefly: MTS cell viability assay, DIPG model HSJD-DIPG-011. Conditions: 72 h incubation, Example 9, Table 3, read-out: IC50 values against cancer cell lines.
From the text: as §1

Experiment [5] has as its system pediatric high-grade glioma HSJD-GBM-001. Nature of the experiment: cells. Conditions: MTS, 72 h incubation. The text has this: Cancer cell lines were obtained from the repository maintained at Hospital Sant Joan de Deu (Barcelona, Spain). Cancer cell lines used in these experiment included cancer types of adult glioma (U373 and U87 cell lines), pediatric gliomas including diffuse intrinsic pontine glioma (HSJD-DIPG-007, HSJD-DIPG-011), and pediatric high-grade glioma (HSJD-GBM-001), retinoblastoma (HSJD-RBT-5, HSJD-RBT-7 and HSJD-RBT-14), Ewing sarcoma (A673), rhabdomyosarcoma (Rd and RH4) and neuroblastoma (LAN-1 and SK-N-JD cell lines and HSJD-NB-004, HSJD-NB-005 and HSJD-NB-016 patient-derived cell models). Briefly, between 3000 and 30,000 cancer cells were cultured in 96 well plates and 24 h later the cells were exposed to compound SN38-linker A-MiniAp4 (Ia) (concentration range 1-0.00000001 μM), SN38 (concentration range 1-0.00000001 μM), or irinotecan (concentration range 100-0,000001 μM). To add the drugs to the cells in culture, SN38-linker A-MiniAp4 (Ia) and irinotecan were prepared in culture medium from stock solutions at concentration 1 mg/mL in water. SN38 was prepared in culture medium from a stock solution at concentration 1 mg/mL in DMSO. The tetrazolium compound [3-(4,5-dimethylthiazol-2-yl)-5-(3-carboxymethoxyphenyl)-2-(4-sulfophenyl)-2H-tetrazolium] (MTS assay; Promega, Fitchburg, WI) was used to determine cell viability after 72 h incubation with the drugs. The concentrations of drug required to cause a reduction of 50% in cell proliferation (IC50 and 95% confidence intervals) were calculated with Graphpad Prism 8 software (La Jolla, CA). Activity curves were built for adult glioma cell lines U87 (FIG. 1) and U373 (FIG. 2), pediatric gliomas including DIPG models HSJD-DIPG-007 (FIG. 3) and HSJD-DIPG-011 (FIG. 4), and pediatric high-grade glioma model HSJD-GBM-001 (FIG. 5), retinoblastoma models HSJD-RBT-5 (FIG. 6), HSJD-RBT-7 (FIG. 7) and HSJD-RBT-14 (FIG. 8), Ewing sarcoma cell line A673 (FIG. 9), rhabdomyosarcoma cell lines Rd (FIG. 10) and RH4 (FIG. 11), neuroblastoma cell lines LAN-1 (FIG. 12) and SK-N-JD (FIG. 13) and neuroblastoma patient-derived cell models HSJD-NB-004 (FIG. 14), HSJD-NB-005 (FIG. 15) and HSJD-NB-016 (FIG. 16). The established IC50 values are in Table 3.
The present inventors compared the activity of the new compound SN38 conjugated with MiniAp4 (SN38-linkerA-MiniAp4, example 7 also named G2B-001) and with SN38-linker B-THRre (comparative example 2). Original compound SN38 was used as reference. Cancer cell lines used in these experiments were pediatric gliomas including diffuse intrinsic pontine glioma HSJD-DIPG-007, and pediatric high-grade glioma HSJD-GBM-001. Briefly, 3000 cancer cells were cultured in 96 well plates and 24 h later the cells were exposed to compound compound (Ia) (concentration range 1-0.00000001 μM), SN38-Linker B-THRre (concentration range 1-0.00000001 μM), and SN38 (concentration range 1-0.00000001 μM). To add the drugs to the cells in culture, SN38-Linker A-MiniAp4 (Ia) and SN38-Linker B-THRre were prepared in culture medium from stock solutions at concentration 1 mg/mL in water. SN38 was prepared in culture medium from a stock solution at concentration 1 mg/mL in DMSO. The MTS assay was used to determine cell viability after 72 h incubation with the drugs. The concentrations of drug required to cause a reduction of 50% in cell proliferation (IC50 and 95% confidence intervals) were calculated with Graphpad Prism 8 software (La Jolla, CA). Activity curves were built for cells HSJD-DIPG-007 (FIG. 20) and HSJD-GBM-001 (FIG. 21). The established IC50 values are in Table 4.
Cancer cell lines used in these experiments were pediatric gliomas including diffuse intrinsic pontine glioma HSJD-DIPG-007, and pediatric high-grade glioma HSJD-GBM-001. Briefly, 3000 cancer cells were cultured in 96 well plates and 24 h later the cells were exposed to compounds (Ia), comparative example 1 and comparative example 2 (concentration range 1-0.001 μM for each of them). […]

Experiment [6] deals with retinoblastoma cell model HSJD-RBT-7. Briefly: MTS cell viability assay, retinoblastoma model HSJD-RBT-7. The conditions noted are these: 72 h incubation, Example 9, Table 3, read-out: IC50 values against cancer cell lines.
From the text: as §1

The mark [7] stands for this setting: Example 9, Table 3, read-out: IC50 values against cancer cell lines.
Where [8] appears, read: Example 11, Table 4, read-out: IC50 values of compounds.

On to `CCc1c2c(nc3ccc(O)cc13)-c1cc3c(c(=O)n1C2)COC(=O)[C@@]3(CC)OC(=O)CCCCn1cc(CCCC(=O)NCCCOCCOCCOCCCNC(=O)CCC(=O)N[C@H]2CNC(=O)C[C@@H](C(N)=O)NC(=O)[C@H](CC(C)C)NC(=O)[C@H](C)NC(=O)[C@H]([C@@H](C)O)NC(=O)[C@H](CCC(=O)O)NC(=O)[C@@H]3CCCN3C(=O)[C@H](C)NC(=O)[C@H](CCCCN)NC2=O)nn1` [SN38-linker A-MiniAp4 (Ia)] ({X1-Suc}-[Dap]KAPETALD-NH2; lactam 1-9), for which the 50% inhibitory concentration (IC50) in experiment [1] worked out at 0.0139 µM; in experiment [2], 0.0038 µM; in experiment [3], 0.00665 µM; in experiment [4], 0.0729 µM; in experiment [5] (setting [7]), 0.0703 µM; in experiment [5] (setting [8]) it was 0.00639 µM. Also, the IC50 in experiment [5] (Example 12, Table 5, read-out: IC50 values (μM) against cancer cell lines) was 0.0216 µM; in experiment [6], 0.0151 µM.

Turning to `CCc1c2c(nc3ccc(OC(=O)N4CCC(N5CCCCC5)CC4)cc13)-c1cc3c(c(=O)n1C2)COC(=O)[C@]3(O)CC` [Irinotecan], the IC50 in experiment [1] (Neuroblastoma cell) amounted to 7.76 µM; in experiment [2] (Homo sapiens), 1.44 µM; in experiment [3] (Homo sapiens, U373 MG), 3.72 µM; in experiment [4], 1.2 µM; in experiment [5] (setting [7]), 9.57 µM; in experiment [6] it was 1.12 µM.

In the case of `CCc1c2c(nc3ccc(O)cc13)-c1cc3c(c(=O)n1C2)COC(=O)[C@]3(O)CC` [SN38, 7-ethyl-10-hydroxy-camptothecin], the IC50 in experiment [1] (Neuroblastoma cell) turned out to be 0.00755 µM; in experiment [2] (Homo sapiens) it was 0.000462 µM; in experiment [3] (Homo sapiens, U373 MG), 0.000869 µM; in experiment [4], 0.00112 µM; in experiment [5] (setting [7]) it was 0.00261 µM; in experiment [5] (setting [8]) it was 0.00631 µM. Moreover, in experiment [6], the IC50 worked out at 0.000335 µM.
